Like-named read-outs stand apart in the source and are kept apart here.
Assays:
[1] = system: Key Grass and Sedge Weeds as well as Grass Crops; assay: Post-Emergent Test II: postemergent herbicidal activity, visual rating after 14 d (Table 8); assay type: in vivo; settings: post-emergence, 336 h; for pest or weed control at 35 g/ha: 35 g ai/ha; for pest or weed control at 70 g/ha: 70 g ai/ha; for pest or weed control at 140 g/ha: 140 g ai/ha
Outline: (§1)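 Greenhouse-grown plants at the first or second true leaf stage (7-21 d, ~15 h photoperiod, 23-29° C day) were sprayed with compound in acetone/DMSO-based aqueous spray containing crop oil concentrate and Triton X-155 at 187 L/ha. Injury versus untreated plants was rated visually after 14 d on a 0-100 scale.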

[2] = system: Key Broadleaf Weed and Crop Species; assay: Post-Emergent Test II: postemergent herbicidal activity, visual rating after 14 d (Table 7); assay type: in vivo; settings: post-emergence, 336 h; for pest or weed control at 35 g/ha: 35 g ai/ha; for pest or weed control at 70 g/ha: 70 g ai/ha; for pest or weed control at 140 g/ha: 140 g ai/ha
Outline: as §1

[3] = barnyardgrass (Echinochloa crus-galli), read-out: Visual Growth Reduction (%) 14 Days After Application, ECHCG
[4] = giant foxtail (Setaria faberi), read-out: Visual Growth Reduction (%) 14 Days After Application, SETFA
[5] = rice (Oryza sativa), read-out: Visual Growth Reduction (%) 14 Days After Application, ORYSA
[6] = wheat, spring (Triticum aestivum), read-out: Visual Growth Reduction (%) 14 Days After Application, TRZAS
[7] = yellow nutsedge (Cyperus esculentus), read-out: Visual Growth Reduction (%) 14 Days After Application, CYPES
[8] = ABUTH: velvetleaf (Abutilon theophrasti), read-out: Visual Growth Reduction (%) 14 Days After Application ABUTH
[9] = AMARE: redroot pigweed (Amaranthus retroflexus), read-out: Visual Growth Reduction (%) 14 Days After Application AMARE
[10] = BRSNN: oilseed rape, canola (Brassica napus), read-out: Visual Growth Reduction (%) 14 Days After Application BRSNN
[11] = CHEAL: lambsquarters (Chenopodium album), read-out: Visual Growth Reduction (%) 14 Days After Application CHEAL
[12] = EPHHL: wild poinsettia (Euphorbia heterophylla), read-out: Visual Growth Reduction (%) 14 Days After Application EPHHL
[13] = HELAN: sunflower (Helianthus annuus), read-out: Visual Growth Reduction (%) 14 Days After Application HELAN

In the case of `COC(=O)c1nc(-c2ccc(Cl)c3c2OC(F)(F)O3)c(C)c(N)c1Cl` [Compound 94], the pest or weed control at 35 g/ha [1, 3] is reported as 0 to 29%, the pest or weed control at 70 g/ha [1, 3] is reported as 0 to 29% and the pest or weed control at 140 g/ha [1, 3] is reported as 0 to 29%. The pest or weed control at 35 g/ha [1, 4] was 0 to 29%, the pest or weed control at 70 g/ha [1, 4] was 0 to 29% and the pest or weed control at 140 g/ha [1, 4] was 0 to 29%. For the same molecule, the pest or weed control at 35 g/ha [1, 5] was 0 to 29%, the pest or weed control at 70 g/ha [1, 5] was 0 to 29% and the pest or weed control at 140 g/ha [1, 5] was 0 to 29%. It also gave a pest or weed control at 35 g/ha [1, 6] of 0 to 29%, a pest or weed control at 70 g/ha [1, 6] of 0 to 29% and a pest or weed control at 140 g/ha [1, 6] of 0 to 29%. The pest or weed control at 35 g/ha [1, 7] was 0 to 29%, the pest or weed control at 70 g/ha [1, 7] was 0 to 29% and the pest or weed control at 140 g/ha [1, 7] was 0 to 29%. For the same molecule, the pest or weed control at 35 g/ha [2, 8] was 30 to 44%, the pest or weed control at 70 g/ha [2, 8] was 45 to 59% and the pest or weed control at 140 g/ha [2, 8] was 45 to 59%. The pest or weed control at 35 g/ha [2, 9] was 95 to 100%, the pest or weed control at 70 g/ha [2, 9] was 95 to 100% and the pest or weed control at 140 g/ha [2, 9] was 95 to 100%. For the same molecule, the pest or weed control at 35 g/ha [2, 10] was 0 to 29%, the pest or weed control at 70 g/ha [2, 10] was 0 to 29% and the pest or weed control at 140 g/ha [2, 10] was 0 to 29%. The pest or weed control at 35 g/ha [2, 11] was 75 to 84%, the pest or weed control at 70 g/ha [2, 11] was 85 to 94% and the pest or weed control at 140 g/ha [2, 11] was 85 to 94%. For the same molecule, the pest or weed control at 35 g/ha [2, 12] was 0 to 29%, the pest or weed control at 70 g/ha [2, 12] was 0 to 29% and the pest or weed control at 140 g/ha [2, 12] was 0 to 29%. It also gave a pest or weed control at 35 g/ha [2, 13] of 60 to 74%, a pest or weed control at 70 g/ha [2, 13] of 85 to 94% and a pest or weed control at 140 g/ha [2, 13] of 95 to 100%.

Reference: patent US9149038B2, “4-amino-6-(heterocyclic)picolinates and 6-amino-2-(heterocyclic)pyrimidine-4-carboxylates and their use as herbicides” (Dow AgroSciences LLC, priority 2013, dated 2015)
